Assay results as given in the NIST ThermoML archive (doi:10.1016/j.jct.2014.05.016).

Assay: xn = mol fraction of the nth substance listed
Conditions: 100 kPa, Liquid; for viscosity: Concentric cylinders viscometry; for mass density: Vibrating tube method

C[n+]1ccn(CCO)c1.F[B-](F)(F)F [1-(2-hydroxyethyl)-3-methylimidazolium tetrafluoroborate] + CCCCn1cc[n+](C)c1.F[B-](F)(F)F
Conditions	mass density [kg/m3]	viscosity [mPa·s]
293.15 K, x1 = 0.1003	–	141.5
293.15 K, x1 = 0.101	1217.5	–
293.15 K, x1 = 0.2001	–	138.1
293.15 K, x1 = 0.201	1230.9	–
293.15 K, x1 = 0.2997	–	139.6
293.15 K, x1 = 0.3002	1245.7	–
293.15 K, x1 = 0.3999	–	140.6
293.15 K, x1 = 0.4006	1261.4	–
293.15 K, x1 = 0.4996	–	138.7
293.15 K, x1 = 0.5009	1276.1	–
293.15 K, x1 = 0.5991	1292.3	143.1
293.15 K, x1 = 0.6997	–	144.7
293.15 K, x1 = 0.7001	1310.8	–
293.15 K, x1 = 0.7999	–	147.1
293.15 K, x1 = 0.8	1326.3	–
293.15 K, x1 = 0.8995	1344.4	–
293.15 K, x1 = 0.8998	–	152.3
293.15 K, x1 = 1	1362.4	153.6
298.15 K, x1 = 0.1003	–	107.8
298.15 K, x1 = 0.101	1214	–
298.15 K, x1 = 0.2001	–	105.3
298.15 K, x1 = 0.201	1227.4	–
298.15 K, x1 = 0.2997	–	106.6
298.15 K, x1 = 0.3002	1242	–
298.15 K, x1 = 0.3999	–	107.4
298.15 K, x1 = 0.4006	1257.9	–
298.15 K, x1 = 0.4996	–	105.4
298.15 K, x1 = 0.5009	1272.5	–
298.15 K, x1 = 0.5991	1288.6	108.3
298.15 K, x1 = 0.6997	–	109.3
298.15 K, x1 = 0.7001	1307.6	–
298.15 K, x1 = 0.7999	–	111.4
298.15 K, x1 = 0.8	1322.5	–
298.15 K, x1 = 0.8995	1340.6	–
298.15 K, x1 = 0.8998	–	114.1
298.15 K, x1 = 1	1358.7	115.1
303.15 K, x1 = 0.1003	–	83.64
303.15 K, x1 = 0.101	1210.4	–
303.15 K, x1 = 0.2001	–	81.83
303.15 K, x1 = 0.201	1223.9	–
303.15 K, x1 = 0.2997	–	82.64
303.15 K, x1 = 0.3002	1238.5	–
303.15 K, x1 = 0.3999	–	83.2
303.15 K, x1 = 0.4006	1254.3	–
303.15 K, x1 = 0.4996	–	81.76
303.15 K, x1 = 0.5009	1268.9	–
303.15 K, x1 = 0.5991	1284.9	83.78
303.15 K, x1 = 0.6997	–	84.42
303.15 K, x1 = 0.7001	1304.2	–
303.15 K, x1 = 0.7999	–	85.38
303.15 K, x1 = 0.8	1318.9	–
303.15 K, x1 = 0.8995	1336.9	–
303.15 K, x1 = 0.8998	–	87.51
303.15 K, x1 = 1	1354.8	87.98
308.15 K, x1 = 0.1003	–	66.1
308.15 K, x1 = 0.101	1206.9	–
308.15 K, x1 = 0.2001	–	64.77
308.15 K, x1 = 0.201	1220.5	–
308.15 K, x1 = 0.2997	–	65.41
308.15 K, x1 = 0.3002	1234.9	–
308.15 K, x1 = 0.3999	–	65.73
308.15 K, x1 = 0.4006	1250.7	–
308.15 K, x1 = 0.4996	–	64.71
308.15 K, x1 = 0.5009	1265.2	–
308.15 K, x1 = 0.5991	1281.3	66.04
308.15 K, x1 = 0.6997	–	66.38
308.15 K, x1 = 0.7001	1300.8	–
308.15 K, x1 = 0.7999	–	67.14
308.15 K, x1 = 0.8	1315.2	–
308.15 K, x1 = 0.8995	1333.1	–
308.15 K, x1 = 0.8998	–	68.51
308.15 K, x1 = 1	1351.2	68.59
313.15 K, x1 = 0.1003	–	53.11
313.15 K, x1 = 0.101	1203.3	–
313.15 K, x1 = 0.2001	–	52.17
313.15 K, x1 = 0.201	1216.9	–
313.15 K, x1 = 0.2997	–	52.58
313.15 K, x1 = 0.3002	1231.3	–
313.15 K, x1 = 0.3999	–	52.83
313.15 K, x1 = 0.4006	1247.1	–
313.15 K, x1 = 0.4996	–	51.96
313.15 K, x1 = 0.5009	1261.6	–
313.15 K, x1 = 0.5991	1277.7	52.99
313.15 K, x1 = 0.6997	–	53.19
313.15 K, x1 = 0.7001	1297.3	–
313.15 K, x1 = 0.7999	–	53.69
313.15 K, x1 = 0.8	1311.5	–
313.15 K, x1 = 0.8995	1329.4	–
313.15 K, x1 = 0.8998	–	54.68
313.15 K, x1 = 1	1347.4	54.81
318.15 K, x1 = 0.1003	–	43.44
318.15 K, x1 = 0.2001	–	42.58
318.15 K, x1 = 0.2997	–	42.92
318.15 K, x1 = 0.3999	–	43.11
318.15 K, x1 = 0.4996	–	42.41
318.15 K, x1 = 0.5991	–	43.22
318.15 K, x1 = 0.6997	–	43.31
318.15 K, x1 = 0.7999	–	43.66
318.15 K, x1 = 0.8998	–	44.39
318.15 K, x1 = 1	–	44.44
